Consider three compounds from patent publication US4837207A, “Diastereoisomers of n^6 -endo-bicyclo[2.2.1]heptyladenosine as antihypertensives with selective action” (priority 1987, dated 1989).

In general, IC50 refers to the concentration at which inhibition is half-maximal.

For one test, the target named is T1, A1 adenosine receptor (Rattus norvegicus, UniProt P25099).
T1 construct: from tissue
T1 sequence (P25099 1-326): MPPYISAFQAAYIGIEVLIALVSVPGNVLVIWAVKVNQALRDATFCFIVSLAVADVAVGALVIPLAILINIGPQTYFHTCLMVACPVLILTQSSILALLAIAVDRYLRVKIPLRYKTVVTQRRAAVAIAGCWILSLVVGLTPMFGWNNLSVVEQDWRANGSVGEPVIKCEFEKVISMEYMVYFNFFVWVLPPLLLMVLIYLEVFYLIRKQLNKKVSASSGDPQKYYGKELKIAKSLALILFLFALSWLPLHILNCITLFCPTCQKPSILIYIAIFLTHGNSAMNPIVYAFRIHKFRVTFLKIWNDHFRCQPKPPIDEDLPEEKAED
Description: adenosine A1 receptor binding affinity. Conditions: Table 1, n = 2 (mixture, VII'), n = 1 (VII"), read-out: A1 IC50 ± SE.

Test [1] in a line: Antihypertensive evaluation (AHP3). The format is in vivo. Conditions: AHP3 antihypertensive assay; Table 2; read-out: ED40 (Dose causing a 40 nm drop in blood pressure). The text has this:
*Dose causing a […] drop in blood pressure, mg/kg.

`OC[C@H]1O[C@@H](n2cnc3c(N[C@@H]4C[C@@H]5CC[C@H]4C5)ncnc32)[C@H](O)[C@@H]1O` [Example 2 (VII"), (1S-endo)-N-Bicyclo[2.2.1]hept-2-yl adenosine]: the IC50 on A1 adenosine receptor was found to be 2.63 nM. Besides, in test [1], the ED (40 mm drop in blood pressure) was 0.7 mg/kg.
In the same order, the values of `OC[C@H]1O[C@@H](n2cnc3c(NC4CC5CCC4C5)ncnc32)[C@H](O)[C@@H]1O` (mixture of isomers) [Diastereomeric mixture, N^6-endo-bicyclo[2.2.1]heptyl adenosine] are 0.738 ± 0.088 nM and 0.6 mg/kg.
For `OC[C@H]1O[C@@H](n2cnc3c(N[C@H]4C[C@H]5CC[C@@H]4C5)ncnc32)[C@H](O)[C@@H]1O` [Example 1 (VII'), (1R-endo)-N-Bicyclo[2.2.1]hept-2-yl adenosine], the ED (40 mm drop in blood pressure) in test [1] was determined as 0.16 mg/kg.
